Results reported in patent publication US12390470B2, “1-methylxanthine-based bioactive composition and method of use thereof” (Ingenious Ingredients, LP, priority 2021, dated 2025).

What was measured:
[1] = Organ weight (liver, heart), Example 1; assay type: in vivo; conditions: mice, 28 days
Description: Twenty-four 8-week-old male Swiss Albino mice were housed in an animal room at a constant temperature (22±3° C.) and humidity (30%-70%) under a 12:12 h light-dark cycle with standard laboratory diet (Purina 5L79, Rat and Mouse 18% protein; PMI Nutrition International, Brentwood, MO, USA). Distilled water was provided ad libitum. All animal experiments were reviewed and approved by the Institutional Animal Ethical Committee (IAEC) of Radiant Research Services Pvt. Ltd (Bangalore, India). All research was conducted in accordance with the guidelines of the committee for the purpose of control and supervision of experiments on animals.
After one week of acclimation, the animals were randomly divided by body weight into three groups (n=8 per group in each test) for oral treatment once a day, at approximately same time each day (±1 hour), for 28 consecutive days: (1) vehicle control or (2) 1-methylxanthine or (3) 1-methylxanthine plus paraxanthine. The dose administered to the mice was calculated using US Food and Drug Administration for human equivalence doses (HED), assuming a human weight of 60 kg. […] Food intake was monitored daily while water intake was ad libitum. BW was recorded weekly. […]

[2] = system: participants; test: Resting heart rate, crossover vs caffeine; assay type: in vivo, human
Source text: All supplements were orally ingested with 8 fluid ounces of cold tap water.

[3] = system: participants; test: Anxiety by Visual Analog Scale; assay type: in vivo, human; design: Anxiety (Visual Analog Scale) / Anxiety (VAS) MEAN (30-180) / Anxiety (VAS) Δ vs. CA: scale not given here
Description: All supplements were orally ingested with 8 fluid ounces of cold tap water. Anxiety was measured by Visual Analog Scale (VAS) at baseline, 30, 60, 90, 120 and 180 minutes after ingestion.

[4] = Person one, time 0, 200 mg oral
[5] = Person two, time 0, 200 mg oral

With `Cn1c(=O)[nH]c2nc[nH]c2c1=O` [1-methylxanthine, 1-Methyl-3H-purine-2,6-dione] the Heart weight [1] was 189.13 ± 0.64 mg, the Liver weight [1] was 1847.25 ± 47.92 mg and the “heart rate change from baseline” value ([2]; 200 mg oral) was “did not increase”. The “heart rate reduced in comparison to CA” value ([2]; 200 mg oral) was 3%, the “Resting Heart Rate MEAN (30-180)” value ([2]; Average) was 57.9 bpm and the “Resting Heart Rate Mean Δ from 0” value ([2]; Average) was −9.6 bpm. The “Resting Heart Rate MEAN (30-180)” value ([2]; Person one) was 53.2 bpm, the “Resting Heart Rate Mean Δ from 0” value ([2]; Person one) was −11.8 bpm and the “Resting Heart Rate Δ vs. CA” value ([2]; Person one) was −2.0 bpm. For the same molecule, the “Resting Heart Rate” value ([2]; Person one, 30 min) was 63 bpm, the “Resting Heart Rate” value ([2]; Person one, 60 min) was 54 bpm and the “Resting Heart Rate” value ([2]; Person one, 90 min) was 49 bpm. The “Resting Heart Rate” value ([2]; Person one, 120 min) was 45 bpm, the “Resting Heart Rate” value ([2]; Person one, 180 min) was 55 bpm and the “Resting Heart Rate” value [2, 4] was 65 bpm. For the same molecule, the “Resting Heart Rate MEAN (30-180)” value ([2]; Person two) was 62.6 bpm, the “Resting Heart Rate Mean Δ from 0” value ([2]; Person two) was −2.4 bpm and the “Resting Heart Rate Δ vs. CA” value ([2]; Person two) was −1.0 bpm. The “Resting Heart Rate” value ([2]; Person two, 30 min) was 61 bpm, the “Resting Heart Rate” value ([2]; Person two, 60 min) was 60 bpm and the “Resting Heart Rate” value ([2]; Person two, 90 min) was 65 bpm. The “Resting Heart Rate” value ([2]; Person two, 120 min) was 60 bpm, the “Resting Heart Rate” value ([2]; Person two, 180 min) was 62 bpm and the “Resting Heart Rate” value [2, 5] was 65 bpm. The “lower feelings of anxiety in comparison to CA” value ([3]; 200 mg oral) was 21%, the “Anxiety (VAS) MEAN (30-180)” value ([3]; Average) was 58.8 and the “Anxiety (VAS) Mean Δ from 0” value ([3]; Average) was “+1.3”. The “Anxiety (VAS) MEAN (30-180)” value ([3]; Person one) was 48.6, the “Anxiety (VAS) Mean Δ from 0” value ([3]; Person one) was −1.4 and the “Anxiety (VAS) Δ vs. CA” value ([3]; Person one) was −26.0. The “Anxiety (Visual Analog Scale)” value ([3]; Person one, 30 min) was 51, the “Anxiety (Visual Analog Scale)” value ([3]; Person one, 60 min) was 40 and the “Anxiety (Visual Analog Scale)” value ([3]; Person one, 90 min) was 40. The “Anxiety (Visual Analog Scale)” value ([3]; Person one, 120 min) was 51, the “Anxiety (Visual Analog Scale)” value ([3]; Person one, 180 min) was 61 and the “Anxiety (Visual Analog Scale)” value [3, 4] was 50. For the same molecule, the “Anxiety (VAS) MEAN (30-180)” value ([3]; Person two) was 69.0, the “Anxiety (VAS) Mean Δ from 0” value ([3]; Person two) was “+4.0” and the “Anxiety (VAS) Δ vs. CA” value ([3]; Person two) was −5.2. For the same molecule, the “Anxiety (Visual Analog Scale)” value ([3]; Person two, 30 min) was 65, the “Anxiety (Visual Analog Scale)” value ([3]; Person two, 60 min) was 65 and the “Anxiety (Visual Analog Scale)” value ([3]; Person two, 90 min) was 65. The “Anxiety (Visual Analog Scale)” value ([3]; Person two, 120 min) was 75, the “Anxiety (Visual Analog Scale)” value ([3]; Person two, 180 min) was 75 and the “Anxiety (Visual Analog Scale)” value [3, 5] was 65.
